21 compounds from patent publication US20230102590A1, “USE OF POLYETHER COMPOUND” (Senju Pharmaceutical Co., Ltd., priority 2020, published 2023) can be followed below.

Where two headings read alike, the source gives them in different places.

The nature of data set [1]: Stability test: change in pH of poloxamer and/or polyethylene glycol solutions stored at 60° C. for four weeks. Conditions: for stabilization of poloxamer 407 or PEG 4000 by the additive alone / concentration of additive able to stabilize PEG 4000 / concentration of additive able to stabilize poloxamer 407: pH change.
Experimental: An additional component was added to an aqueous solution comprising poloxamer and/or polyethylene glycol, and the change in the viscosity and pH was measured over time under harsh conditions of 60° C. The following were used as the poloxamer, polyethylene glycol, and buffer. • Poloxamer 407 (Kolliphor P 407, BASF, Germany) • PEG 4000 (Macrogol 4000, NOF, Tokyo) • Buffer: 0.9% boric acid, 0.1% borax
The pH was adjusted with hydrochloric acid or sodium hydroxide. […] A polyethylene eye drop bottle was filled with 5 mL of each filtrate and stored in a 60° C. thermostatic vessel. The pH and viscosity of the test solutions as of preparation and at four weeks after storage were measured. The viscosity was measured using a rotational viscometer (Toki Sangyo (Osaka) Model TVE-25 viscometer type L, 25° C., 100 rpm). The pH as of the preparation was measured in the test solution before transferring to an eye drop bottle for storage.
The procedure of data set [2]: Fujifilm Wako Pure Chemical
The poorly soluble compound content in the recovered filtrate was measured by liquid chromatography specified below (Shimadzu (Kyoto), high performance liquid chromatograph Prominence).
As the standard product of triamcinolone acetonide, a reagent from the Pharmaceutical and Medical Device Regulatory Science Society of Japan (Japan) was used. • 50 μL of sample solution and standard solution was measured by liquid chromatography under the following conditions.
Column temperature: constant temperature of about 40° C. Mobile phase A: 0.1% trifluoroacetic acid/10% acetonitrile solution Mobile phase B: 0.1% trifluoroacetic acid/90% acetonitrile solution Delivery of mobile phase: the ratio of mixture of mobile phase A and mobile phase B was changed as follows to control the linear concentration gradient.
Detergent: 50% acetonitrile solution Flow rate: 1.0 mL/min Temperature within autosampler: 5° C.
The following conditions were tested as additives to a poorly soluble compound
wherein SA+B=solubility of a poorly soluble compound in a composition comprising poloxamer 407 and PEG 4000 SB=solubility of a poorly soluble compound in a composition comprising PEG 4000, but not poloxamer 407 SA=solubility of a poorly soluble compound in a composition comprising poloxamer 407, but not PEG 4000 S0=solubility of a poorly soluble compound in a composition that comprises neither poloxamer 407 nor PEG 4000.
The solubility in a composition of PEG and poloxamer was measured in the same manner described above for additional compounds.
For cabozantinib and telmisartan, the pH of the aqueous solution with the base composition described above was changed to 7.4. For rebamipide, the aqueous solution with the base composition was as follow. • 0.05% sodium hydrogen phosphate hydrate • 0.45% sodium dihydrogen phosphate hydrate • sodium hydroxide and hydrochloric acid (suitable amount was added to adjust the pH to 6.0)
Additional compounds were measured in the same manner described above.
Cabozantinib and telmisartan were tested with a solution adjusted to a pH of 7.4. Rebamipide was tested with a solution adjusted to a pH of 6.0. Other compounds were tested with a solution adjusted to a pH of 7.0.

Data set [3] in a line: Basic solubility at 25° C. in ethanol, PEG 400, propylene glycol (PG) and buffer solution; solubility ratio non-aqueous solvent / buffer solution. The conditions noted are these: for Solubility, Buffer solution: phosphate buffer pH 7.0. As to the method:
In this regard, the buffer solution had the following composition: • 0.2% sodium hydrogen phosphate hydrate • 0.3% sodium dihydrogen phosphate hydrate • sodium hydroxide and hydrochloric acid (suitable amount was added to adjust the pH to 7.0; however, pH was adjusted to 7.4 for cabozantinib and telmisartan).
However, the following composition was used for rebamipide instead: • 0.05% sodium hydrogen phosphate hydrate • 0.45% sodium dihydrogen phosphate hydrate • sodium hydroxide and hydrochloric acid (suitable amount was added to adjust the pH to 6.0).
Each compound was measured in the same manner described above. In the Table, the molecular weight and Log P values are reference values (or values calculated from reference values).

The mark [4] stands for this setting: 25° C., buffer pH 7.0 (pH 7.4 for cabozantinib and telmisartan; pH 6.0 for rebamipide).

Regarding `O=S([O-])S(=O)(=O)[O-].[Na+].[Na+]` [sodium pyrosulfite], the “stabilization of poloxamer 407 or PEG 4000 by the additive alone” value (“stabilization … by the additive alone” for short) in data set [1] (four weeks at 60° C.) is listed as “could not stabilize poloxamer 407 or PEG 4000”.
Turning to `Cc1cn(-c2cc(NC(=O)c3ccc(C)c(Nc4nccc(-c5cccnc5)n4)c3)cc(C(F)(F)F)c2)cn1` [Nilotinib], in data set [2], the “Solubility scale factor at 5° C. 30% PEG 4000/10% poloxamer 407” value was 144.99 and the “Solubility scale factor at 15° C. 30% PEG 4000/10% poloxamer 407” value came out at 31.62. For the same compound, in data set [3], the “Solubility ratio of solvent with respect to buffer solution Ethanol/buffer solution” value is reported as 1623663.73, the “Solubility ratio of solvent with respect to buffer solution PEG400/buffer solution” value is reported as 7100339.79 and the “Solubility ratio of solvent with respect to buffer solution PG/buffer solution” value is reported as 1437221.83.
Consider `C[C@@H]1C[C@H]2[C@@H]3CCC4=CC(=O)C=C[C@]4(C)[C@@]3(F)[C@@H](O)C[C@]2(C)[C@@]1(O)C(=O)CO` [dexamethasone], for which, in data set [2], the “Solubility scale factor at 5° C. 30% PEG 4000/10% poloxamer 407” value amounted to 7.45 and the “Solubility scale factor at 15° C. 30% PEG 4000/10% poloxamer 407” value came to 7.10. Further, the “Solubility, Buffer solution” value in data set [3] (25° C.) turned out to be 0.008221%.
For the compound `COC1=CC(=O)C[C@@H](C)[C@]12Oc1c(Cl)c(OC)cc(OC)c1C2=O` [Griseofulvin], in data set [2], the “Solubility scale factor at 5° C. 30% PEG 4000/10% poloxamer 407” value was found to be 15.19 and the “Solubility scale factor at 15° C. 30% PEG 4000/10% poloxamer 407” value came to 14.31. Also, in data set [3] (25° C.), the “Solubility, Ethanol” value worked out at 0.2423%; the “Solubility, PEG400” value worked out at 1.367%; the “Solubility, PG (propylene glycol)” value worked out at 0.1569%; the “Solubility, Buffer solution” value turned out to be 0.0007834%. For the same compound, in data set [3] (setting [4]), the “Solubility ratio of solvent with respect to buffer solution Ethanol/buffer solution” value is listed as 309.31, the “Solubility ratio of solvent with respect to buffer solution PEG400/buffer solution” value is 1745.29 and the “Solubility ratio of solvent with respect to buffer solution PG/buffer solution” value stood at 200.23.
Regarding `O=C(O)CN(CCN(CC(=O)O)CC(=O)O)CC(=O)O` [EDTA, ethylenediaminetetraacetic acid], in data set [1] (0.1% additive), the “stabilization effect on low molecular weight PEG 400” value is “exhibited a stabilization effect”. Moreover, in data set [1] (0.1% additive, four weeks at 60° C.), the “amount of PEG 4000 that the additive was able to stabilize” value was “up to 20%”. Besides, in data set [1] (four weeks at 60° C.), the “concentration of additive able to stabilize PEG 4000” value is given as at least 0.1% and the “concentration of additive able to stabilize poloxamer 407” value stood at 0.01%.
For `CC1(C)O[C@@H]2C[C@H]3[C@@H]4CCC5=CC(=O)C=C[C@]5(C)[C@@]4(F)[C@@H](O)C[C@]3(C)[C@]2(C(=O)CO)O1` [Triamsinolone acetonide], in data set [2], the “Solubility scale factor at 5° C. 30% PEG 4000/10% poloxamer 407” value is given as 7.32 and the “Solubility scale factor at 15° C. 30% PEG 4000/10% poloxamer 407” value was 7.52. Further, in data set [3] (setting [4]), the “Solubility ratio of solvent with respect to buffer solution Ethanol/buffer solution” value was found to be 1043.62, the “Solubility ratio of solvent with respect to buffer solution PEG400/buffer solution” value was 876.48 and the “Solubility ratio of solvent with respect to buffer solution PG/buffer solution” value came to 680.05.
The like results for `O=C1Nc2ccc(Cl)cc2[C@@](C#CC2CC2)(C(F)(F)F)O1` [Efavir ? nt] were, in that order, 14.23, 1.97, 101607.44, 96901.18 and 66368.13.
On to `Cc1ccc(-c2cc(C(F)(F)F)nn2-c2ccc(S(N)(=O)=O)cc2)cc1` [Cel ? coxib], for which, in data set [2], the “Solubility scale factor at 5° C. 30% PEG 4000/10% poloxamer 407” value is 686.99 and the “Solubility scale factor at 15° C. 30% PEG 4000/10% poloxamer 407” value worked out at 183.33. Besides, in data set [3] (setting [4]), the “Solubility ratio of solvent with respect to buffer solution Ethanol/buffer solution” value is on record as 80774.38, the “Solubility ratio of solvent with respect to buffer solution PEG400/buffer solution” value stood at 371931.96 and the “Solubility ratio of solvent with respect to buffer solution PG/buffer solution” value is 28507.07.
In the case of `Brc1cccc2c1oc1ccccc12` [4-bromodibenzofuran], the “state of the test composition” value in data set [2] is “converted into gel”.
`Cc1ccc(-c2cc(C(F)(F)F)nn2-c2ccc(S(N)(=O)=O)cc2)cc1` [Celecoxib]: the “Solubility, Ethanol” value in data set [3] (25° C.) is given as 10.24%.
Consider `O=S([O-])[O-].[Na+].[Na+]` [sodium sulfite], for which the “stabilization … by the additive alone” value in data set [1] (four weeks at 60° C.) is reported as “could not stabilize poloxamer 407 or PEG 4000”.
On to `COC(=O)Nc1nc2cc(C(=O)c3ccc(F)cc3)ccc2[nH]1` [Flubendazole], for which, in data set [2], the “Solubility scale factor at 5° C. 30% PEG 4000/10% poloxamer 407” value amounted to 24.46 and the “Solubility scale factor at 15° C. 30% PEG 4000/10% poloxamer 407” value amounted to 12.41. Besides, the “Solubility, Ethanol” value in data set [3] came to 0.007308%. Also, in data set [3] (setting [4]), the “Solubility ratio of solvent with respect to buffer solution Ethanol/buffer solution” value is on record as 745.67, the “Solubility ratio of solvent with respect to buffer solution PEG400/buffer solution” value worked out at 5882.38 and the “Solubility ratio of solvent with respect to buffer solution PG/buffer solution” value came out at 1401.17.
In the case of `Brc1cccc2c1oc1ccccc12` [4-bromadibenzofuran], in data set [2], the “Solubility scale factor at 5° C. 30% PEG 4000/10% poloxamer 407” value was found to be 793.72 and the “Solubility scale factor at 15° C. 30% PEG 4000/10% poloxamer 407” value was found to be 1.61. Moreover, in data set [3] (setting [4]), the “Solubility ratio of solvent with respect to buffer solution Ethanol/buffer solution” value is 426955.49, the “Solubility ratio of solvent with respect to buffer solution PEG400/buffer solution” value amounted to 1693721.20 and the “Solubility ratio of solvent with respect to buffer solution PG/buffer solution” value was found to be 106519.51.
For `CC1(C)O[C@@H]2C[C@H]3[C@@H]4CCC5=CC(=O)C=C[C@]5(C)[C@@]4(F)[C@@H](O)C[C@]3(C)[C@]2(C(=O)CO)O1` [triamcinolone acetonide], the “Solubility, Buffer solution” value in data set [3] (25° C.) is listed as 0.001426%.
Regarding `CNC(=O)c1cc(Oc2ccc(NC(=O)Nc3ccc(Cl)c(C(F)(F)F)c3)cc2)ccn1` [Soraf ? nib], in data set [2], the “Solubility scale factor at 5° C. 30% PEG 4000/10% poloxamer 407” value is given as 2355.97 and the “Solubility scale factor at 15° C. 30% PEG 4000/10% poloxamer 407” value worked out at 450.47. In data set [3] (setting [4]), the “Solubility ratio of solvent with respect to buffer solution Ethanol/buffer solution” value was found to be 4781694.68, the “Solubility ratio of solvent with respect to buffer solution PEG400/buffer solution” value came out at 7210696.23 and the “Solubility ratio of solvent with respect to buffer solution PG/buffer solution” value is 4473505.75.
Take `OC[C@@H](O)[C@@H](O)[C@H](O)[C@H](O)CO` [Mannitol]: in data set [1] (four weeks at 60° C.), the “stabilization … by the additive alone” value is reported as “could not stabilize poloxamer 407 or PEG 4000”.
Regarding `C=C(C)[C@H]1Cc2c(ccc3c2O[C@@H]2COc4cc(OC)c(OC)cc4[C@@H]2C3=O)O1` [Rotenone], in data set [3] (25° C.), the “Solubility, PEG400” value is 3.314% and the “Solubility, PG (propylene glycol)” value came to 0.1184%. Besides, in data set [3] (setting [4]), the “Solubility ratio of solvent with respect to buffer solution Ethanol/buffer solution” value is given as 30294.14, the “Solubility ratio of solvent with respect to buffer solution PEG400/buffer solution” value was determined as 368226.98 and the “Solubility ratio of solvent with respect to buffer solution PG/buffer solution” value came to 13159.33.
In the case of `O=S([O-])([O-])=S.[Na+].[Na+]` [Sodium thiosulfate], in data set [1] (four weeks at 60° C.), the “concentration of additive able to stabilize PEG 4000” value is listed as 0.01% and the “concentration of additive able to stabilize poloxamer 407” value came out at 0.03%.
`CC1(C)O[C@@H]2C[C@H]3[C@@H]4CCC5=CC(=O)C=C[C@]5(C)[C@H]4[C@@H](O)C[C@]3(C)[C@]2(C(=O)CO)O1` [Desonide]: in data set [2], the “Solubility scale factor at 5° C. 30% PEG 4000/10% poloxamer 407” value is reported as 7.59 and the “Solubility scale factor at 15° C. 30% PEG 4000/10% poloxamer 407” value is reported as 6.73. Also, in data set [3] (25° C.), the “Solubility, PEG400” value worked out at 1.031%; the “Solubility, PG (propylene glycol)” value is given as 1.253%; the “Solubility, Buffer solution” value turned out to be 0.007171%. In addition, in data set [3] (setting [4]), the “Solubility ratio of solvent with respect to buffer solution Ethanol/buffer solution” value is 270.67, the “Solubility ratio of solvent with respect to buffer solution PEG400/buffer solution” value worked out at 143.78 and the “Solubility ratio of solvent with respect to buffer solution PG/buffer solution” value is on record as 174.69.
For the compound `CNC(=O)c1cc(Oc2ccc(NC(=O)Nc3ccc(Cl)c(C(F)(F)F)c3)c(F)c2)ccn1` [Regorafenib], in data set [2], the “Solubility scale factor at 5° C. 30% PEG 4000/10% poloxamer 407” value is 182.78 and the “Solubility scale factor at 15° C. 30% PEG 4000/10% poloxamer 407” value stood at 114.87. Also, in data set [3] (setting [4]), the “Solubility ratio of solvent with respect to buffer solution Ethanol/buffer solution” value is given as 2004388.60, the “Solubility ratio of solvent with respect to buffer solution PEG400/buffer solution” value came to 7691626.26 and the “Solubility ratio of solvent with respect to buffer solution PG/buffer solution” value is 1186517.97. Further, the “Solubility, Buffer solution” value in data set [3] (25° C.) is recorded as 0.0000004174%.
Regarding `CCC(C)n1ncn(-c2ccc(N3CCN(c4ccc(OCC5COC(Cn6cncn6)(c6ccc(Cl)cc6Cl)O5)cc4)CC3)cc2)c1=O` (centres unmarked) [Itraconazole], in data set [3] (25° C.), the “Solubility, Buffer solution” value is given as “below the detection limit”.
